Laboratory results published in ChEMBL document CHEMBL1201862, “PubChem BioAssay data set” (2004).
Activity calls are given as the source filed them. Cut-off read from the data, not from the text of the source, for most assays here: actives have a measured EC50 and inactives only a lower limit.

Assays:
[1] = molecular target: T1, DNA repair and recombination protein RAD54-like (Homo sapiens, UniProt Q92698); test: RAD54 Holliday junction migration blockers – biochemical, fluorescence, cherry-picked samples, dose series, confirmation (AID 651657); type: functional
T1 sequence (Q92698 whole entry): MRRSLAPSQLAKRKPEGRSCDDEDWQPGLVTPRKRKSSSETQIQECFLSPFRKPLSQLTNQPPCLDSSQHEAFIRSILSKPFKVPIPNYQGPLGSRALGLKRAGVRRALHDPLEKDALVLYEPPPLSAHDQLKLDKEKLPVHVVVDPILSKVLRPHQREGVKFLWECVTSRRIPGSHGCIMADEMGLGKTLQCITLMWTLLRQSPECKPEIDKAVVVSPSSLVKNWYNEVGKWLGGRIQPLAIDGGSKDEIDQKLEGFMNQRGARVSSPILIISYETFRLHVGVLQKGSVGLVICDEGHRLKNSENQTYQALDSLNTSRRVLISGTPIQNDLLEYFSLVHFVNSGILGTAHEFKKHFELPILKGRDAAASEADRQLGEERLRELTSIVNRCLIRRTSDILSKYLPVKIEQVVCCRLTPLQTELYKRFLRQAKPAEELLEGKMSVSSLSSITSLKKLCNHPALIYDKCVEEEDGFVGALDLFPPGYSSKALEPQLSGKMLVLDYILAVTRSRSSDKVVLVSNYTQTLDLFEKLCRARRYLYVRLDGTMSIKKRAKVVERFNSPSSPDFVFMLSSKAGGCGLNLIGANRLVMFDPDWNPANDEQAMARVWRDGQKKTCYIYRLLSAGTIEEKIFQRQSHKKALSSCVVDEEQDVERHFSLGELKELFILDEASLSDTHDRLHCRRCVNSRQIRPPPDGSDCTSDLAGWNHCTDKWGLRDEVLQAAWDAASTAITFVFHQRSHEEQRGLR

HeLa = test: ATP-based viability loss in HeLa cells – cell-based, CellTiter-Glo luminescence, cherry-pick samples, cytotoxicity control for MITF activator project, dose response (AID 540259); type: functional; conditions: Homo sapiens
P388/ADR = test: cells; type: functional; conditions: Mus musculus, P388/ADR
SN12K1 = test: cells; type: functional; conditions: Homo sapiens, SN12K1
Leucine aminopeptidase = molecular target: T2, Leucine aminopeptidase (Plasmodium falciparum 3D7, UniProt Q8IL11); test: P. falciparum M17LAP inhibitors, primary screen, biochemical, fluorogenic H-Leu-NHMec substrate, 1536-well (AID 1619); type: functional
T2 sequence (Q8IL11 whole entry): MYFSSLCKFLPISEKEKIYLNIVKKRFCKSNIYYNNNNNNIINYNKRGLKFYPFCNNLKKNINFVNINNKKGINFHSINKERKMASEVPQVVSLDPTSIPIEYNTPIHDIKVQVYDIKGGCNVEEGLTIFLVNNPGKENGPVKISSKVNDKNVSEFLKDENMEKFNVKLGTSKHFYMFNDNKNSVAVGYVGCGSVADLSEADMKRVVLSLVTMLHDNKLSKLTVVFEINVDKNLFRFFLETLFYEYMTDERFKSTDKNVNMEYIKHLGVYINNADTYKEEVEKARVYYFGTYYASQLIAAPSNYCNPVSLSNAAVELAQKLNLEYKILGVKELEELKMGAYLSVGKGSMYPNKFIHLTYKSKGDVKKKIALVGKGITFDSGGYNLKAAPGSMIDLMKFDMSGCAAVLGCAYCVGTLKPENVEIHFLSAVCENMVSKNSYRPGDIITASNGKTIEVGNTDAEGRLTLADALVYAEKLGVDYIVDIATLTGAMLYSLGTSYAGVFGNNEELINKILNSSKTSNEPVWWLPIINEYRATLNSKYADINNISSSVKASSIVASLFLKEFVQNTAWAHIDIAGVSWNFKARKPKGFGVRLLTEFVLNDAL

[2] = molecular target: T3, RNA-binding protein pos-1 (Caenorhabditis elegans, UniProt G5EF15); test: disruptors of C. elegans POS-1 RNA interaction – biochemical, fluorescence polarization, dose response (AID 1964);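 note: purified POS-1 fused to maltose binding protein made in E. coli; potency of compounds blocking POS-1 binding to fluorescent RNA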
T3 sequence (G5EF15 whole entry): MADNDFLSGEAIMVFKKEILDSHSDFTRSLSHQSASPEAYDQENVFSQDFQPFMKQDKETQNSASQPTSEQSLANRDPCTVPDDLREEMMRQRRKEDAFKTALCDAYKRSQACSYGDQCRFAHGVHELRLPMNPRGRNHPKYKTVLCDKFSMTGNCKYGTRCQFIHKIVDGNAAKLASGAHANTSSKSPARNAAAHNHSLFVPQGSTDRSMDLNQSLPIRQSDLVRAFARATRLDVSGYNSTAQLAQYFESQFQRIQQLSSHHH

[3] = molecular target: T4, Zinc finger protein mex-5 (Caenorhabditis elegans, UniProt Q9XUB2); test: potency of MEX-5 RNA-binding blockers – biochemical, C. elegans, fluorescence polarization, dose response (AID 1960)
T4 sequence (Q9XUB2 whole entry): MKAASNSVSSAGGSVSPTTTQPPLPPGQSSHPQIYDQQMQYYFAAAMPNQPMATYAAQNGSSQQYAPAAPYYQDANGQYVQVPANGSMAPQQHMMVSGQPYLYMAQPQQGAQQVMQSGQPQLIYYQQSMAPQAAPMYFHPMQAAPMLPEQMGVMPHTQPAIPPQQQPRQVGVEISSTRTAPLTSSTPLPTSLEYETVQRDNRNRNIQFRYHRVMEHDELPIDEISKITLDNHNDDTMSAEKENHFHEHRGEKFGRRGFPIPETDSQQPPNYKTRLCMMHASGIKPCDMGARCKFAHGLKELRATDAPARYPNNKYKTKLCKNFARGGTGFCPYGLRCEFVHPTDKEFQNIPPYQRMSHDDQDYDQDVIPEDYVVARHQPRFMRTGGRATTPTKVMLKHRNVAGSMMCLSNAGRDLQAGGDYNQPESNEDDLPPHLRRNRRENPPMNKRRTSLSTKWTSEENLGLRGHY

[4] = HPDE-C7 pancreatic duct cell viability loss – fluorescence, HTS (AID 430); type: functional, cell-based; conditions: Homo sapiens
[5] = viability loss of HPDE-C7K cells – cell-based, fluorescence, HTS, primary screen (AID 431); type: functional; conditions: Homo sapiens
[6] = molecular target: T5, Ubiquitin-conjugating enzyme E2 N (Homo sapiens, UniProt P61088); type: functional;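 note: Dose-response confirmation in a TR-FRET assay detecting UBC13-driven polyubiquitin chain formation, inhibition measured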
T5 sequence (P61088 whole entry): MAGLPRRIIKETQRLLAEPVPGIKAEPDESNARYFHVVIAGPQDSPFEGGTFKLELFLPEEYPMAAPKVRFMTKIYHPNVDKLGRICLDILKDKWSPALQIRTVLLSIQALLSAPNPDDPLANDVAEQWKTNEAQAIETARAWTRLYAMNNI

[7] = loss of viability in HepG2 cells – cell-based, CellTiter-Glo, cherry-picked, cytotoxicity control for Shn3 inhibitor project, dose response (AID 624134); type: functional
[8] = reduction of Shn3 3'UTR-driven luciferase in osteoblasts – cell-based, Clone20 osteoblasts, firefly luciferase, cherry-picked, dose response (AID 624132); type: functional;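 note: firefly luciferase luminescence from reporter carrying the Shn3 3'UTR in osteoblasts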
[9] = Luminescence Cell-Based Dose Response HTS to Identify Inhibitors of 5'UTR Stem-Loop Driven Prion Protein mRNA Translation in H4 Neuroglioblastoma Cells. [Related pubchem assays: 1827 (Project Summary), 1813 (Primary HTS)]; type: functional
[10] = molecular target: T6, Heat shock factor protein 1 (Mus musculus, UniProt P38532); test: decrease of HSF1-responsive luciferase luminescence – cell-based, NIH3T3, dose retest, confirmation (AID 2382); type: functional;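 note: NIH3T3 fibroblasts with HSF1-driven luciferase reporter stressed by proteasome inhibitor MG132; luminescence from HSF1-driven luciferase expression after 8 hours of MG132 stress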
T6 sequence (P38532 whole entry): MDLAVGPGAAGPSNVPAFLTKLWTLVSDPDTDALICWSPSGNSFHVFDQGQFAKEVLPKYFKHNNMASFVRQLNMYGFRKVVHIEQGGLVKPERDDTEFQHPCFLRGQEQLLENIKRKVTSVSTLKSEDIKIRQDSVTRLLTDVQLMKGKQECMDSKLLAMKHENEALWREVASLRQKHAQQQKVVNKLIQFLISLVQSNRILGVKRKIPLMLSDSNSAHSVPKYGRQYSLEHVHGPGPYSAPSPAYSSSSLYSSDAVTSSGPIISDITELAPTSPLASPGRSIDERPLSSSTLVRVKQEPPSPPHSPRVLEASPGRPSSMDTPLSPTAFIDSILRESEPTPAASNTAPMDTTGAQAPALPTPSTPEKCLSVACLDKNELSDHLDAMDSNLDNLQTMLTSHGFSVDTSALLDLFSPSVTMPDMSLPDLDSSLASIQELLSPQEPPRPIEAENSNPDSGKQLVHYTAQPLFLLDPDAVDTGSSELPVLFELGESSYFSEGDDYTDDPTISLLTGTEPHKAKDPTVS

[11] = luciferase reporter signal suppression in cells – H4 neuroglioma cells, luminescence, dose response (AID 1990); type: functional, cell-based
INS1 = test: INS-1E survival protection against cytokine death – cell-based, luminescence, retest, dose response (AID 449756); type: functional; conditions: Rattus norvegicus;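 note: cell death triggered by IL-1 beta plus TNF-alpha plus IFN-gamma mixture; protective hits raise ATP signal compared with cytokine alone wells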
[12] = alpha-synuclein stem-loop luciferase translation blockers – H4 neuroglioma cells, luminescence, confirmation (AID 1988); type: functional, cell-based
[13] = non-specific 3'UTR reporter inhibition in Clone20-Shn3RL – cell-based, Renilla luciferase, cherry-picked, counter-screen for Shn3 inhibitor project, dose response (AID 624133); type: functional
BJ [14] = test: BJ-TERT fibroblast viability loss – cell-based, RAS-independent, luminescence, dose response (AID 1933); type: functional; conditions: Homo sapiens
[15] = DRD fibroblast viability loss – cell-based, non-viral oncogenic, luminescence, dose response (AID 1934); type: functional; conditions: Homo sapiens
BJ [16] = test: BJ-TERT-LT-ST fibroblast viability loss – cell-based, RAS-independent, luminescence, dose response (AID 1935); type: functional; conditions: Homo sapiens;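 note: BJ fibroblasts immortalized with TERT plus LT and ST oncogenes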
BJ [17] = test: cells; type: functional, cell-based; conditions: Homo sapiens
[18] = Luminescence Cell-Based Dose Confirmation HTS to Identify Inhibitors of Platelet Dense Granule Release. [Related pubchem assays: 1663 (Primary HTS), 1678 (Summary of Project)]; type: functional
[19] = molecular target: Luciferin 4-monooxygenase (Photinus pyralis, UniProt P08659); test: inhibition of purified Photinus pyralis luciferase – biochemical, luminescence, dose response (AID 1891)
[20] = Luminescence Cell-Based Dose Retest to Confirm Inhibitors of Cancer Stem Cells. [Related pubchem assays (depositor defined):AID2717, AID2721]; type: functional; conditions: Homo sapiens

Chain of Luciferin 4-monooxygenase (P08659 whole entry): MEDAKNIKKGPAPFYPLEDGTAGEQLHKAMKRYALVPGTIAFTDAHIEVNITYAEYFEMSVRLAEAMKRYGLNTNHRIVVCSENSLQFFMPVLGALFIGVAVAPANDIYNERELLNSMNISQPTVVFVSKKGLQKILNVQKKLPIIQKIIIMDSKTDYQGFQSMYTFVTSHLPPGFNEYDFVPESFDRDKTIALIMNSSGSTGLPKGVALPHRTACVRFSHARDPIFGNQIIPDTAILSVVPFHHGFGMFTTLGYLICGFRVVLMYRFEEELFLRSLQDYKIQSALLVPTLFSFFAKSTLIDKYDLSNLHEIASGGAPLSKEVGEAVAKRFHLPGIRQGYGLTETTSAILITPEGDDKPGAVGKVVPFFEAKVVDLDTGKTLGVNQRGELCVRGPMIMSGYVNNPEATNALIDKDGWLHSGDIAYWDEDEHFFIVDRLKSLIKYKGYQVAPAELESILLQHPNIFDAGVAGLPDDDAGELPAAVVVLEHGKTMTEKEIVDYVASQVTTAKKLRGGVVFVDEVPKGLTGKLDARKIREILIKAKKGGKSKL

SMILES: CCn1cc(C(=O)NCCN(C)C)c(=O)c2cc(F)c(N3CCN(C)CC3)cc21
- AC50 [1]: 21.1 µM (active)

SMILES: O=C(N/N=C\c1cccc(Cl)c1)c1[nH]nc2c1CCCC2
- AC50 (HeLa): > 350 µM (inactive)

SMILES: O=NN(CCCl)C(=O)NC1CCC(CC2CCC(NC(=O)N(CCCl)N=O)CC2)CC1 (stereo unspecified)
- GI50 (P388/ADR): 1.64 µM (inactive)
- GI50 (SN12K1): 0.385 µM (active)

SMILES: CC(C)N1CCc2c(sc(NC(=O)c3ccc(C(=O)c4ccccc4)cc3)c2C(N)=O)C1
- AC50 [1]: 68.7 µM (active)

SMILES: C=CCC1(CC=C)CCCN1C(=O)C1CCC(=O)N(CCc2ccccc2)C1 (stereo unspecified)
- AC50 (HeLa): 93 µM (active)

SMILES: CC(C)c1ccc(NC2=NN=C(c3cccs3)CS2)cc1
- AC50 (HeLa): 63.8 µM (active)

SMILES: COc1ccc(-c2csc(-n3cccn3)n2)cc1
- AC50 (HeLa): 33.9 µM (active)

SMILES: CCOC(=O)c1cc(=O)n2nc(-c3ccccc3F)nc2s1
- IC50 (Leucine aminopeptidase): 31.2 µM (active)
- EC50 [2]: > 300 µM (not active)
- EC50 [3]: > 300 µM (not active)

SMILES: CCOc1ccc2[nH]c3c(NCCN(C)C)ncnc3c2c1
- AC50 [1]: 55.6 µM (active)

SMILES: CCOC(=O)c1c(NC(=O)c2ccc(-n3cnnn3)cc2)sc2c1CCCC2
- EC50 [4]: > 20 µM (not active)
- EC50 [5]: > 20 µM (not active)

SMILES: Cc1ccc(-c2cc(-c3ccc(C)cc3O)[nH]n2)cc1
- AC50 (HeLa): 44.6 µM (active)

SMILES: CCn1c(=O)c2cc(C(=O)NCCN(C)C)sc2c2ccccc21
- AC50 [1]: 30.7 µM (active)
- IC50 [6]: > 20 µM (inactive)

SMILES: CC[C@H]1CN2CCc3cc(OC)c(OC)cc3[C@@H]2C[C@@H]1C[C@H]1NCCc2cc(OC)c(OC)cc21
- AC50 [7]: 40.5 µM (active)
- AC50 [8]: < 0.26 µM (active)
- EC50 [9]: < 0.1 µM (active)
- EC50 [10]: < 0.16 µM (active)
- EC50 [11]: < 0.1 µM (active)
- EC50 [4]: 0.15 µM (active)
- AC50 (INS1): 2.35 µM (active)
- EC50 [12]: < 0.1 µM (active)
- EC50 [5]: 0.09 µM (active)
- AC50 [13]: 0.33 µM (active)

SMILES: CC(C)Cn1nc(NS(=O)(=O)c2ccccc2)c2cc3ccccc3nc21
- EC50 [4]: > 20 µM (not active)
- EC50 [5]: > 20 µM (not active)

SMILES: c1csc(-c2noc(COc3ccc4c(c3)CCCC4)n2)c1
- AC50 (HeLa): > 350 µM (inactive)

SMILES: CCCCNC(=S)Nc1ccc2cn[nH]c2c1
- IC50 (Leucine aminopeptidase): 75.6 µM (active)

SMILES: O=C(CCl)Nc1ccccc1C(=O)NCc1ccccc1
- EC50 (BJ [14]): > 150 µM (not active)
- EC50 [15]: > 150 µM (inconclusive)
- EC50 (BJ [16]): > 150 µM (not active)
- EC50 (BJ [17]): > 150 µM (not active)

SMILES: O=C(Nc1ccccc1)Nc1ccc(C(=O)N2CCCC2)cc1
- EC50 [18]: 3.93 µM (active)
- EC50 (BJ [14]): 9.11 µM (active)
- EC50 [15]: 7.86 µM (active)
- EC50 (BJ [16]): > 150 µM (inconclusive)
- EC50 (BJ [17]): 9.01 µM (active)
- EC50 [19]: 0.571 µM (active)

SMILES: CC(=O)c1sc(NC(=O)c2ccc3c(c2)OCO3)nc1C
- AC50 (HeLa): 51.5 µM (active)

SMILES: NS(=O)(=O)c1ccc(NC=C2C(=O)N(C3CCCCC3)C(=O)N(C3CCCCC3)C2=O)cc1
- EC50 [4]: 5.47 µM (active)
- EC50 [5]: 5.81 µM (active)
- AC50 [20]: 3.92 µM (active)

SMILES: CC(C)=NN=C(N)NC(=S)Nc1ccc(C)cc1
- IC50 (Leucine aminopeptidase): 59.3 µM (active)
